Laboratory results as given in patent US20100222396A1 (Novartis AG, priority 2009, published 2010).

Key:
[1] = target: T1, human orexin 1 receptor (hOx1R) (Homo sapiens, UniProt O43613); assay: Radioligand binding assay ([125I]orexin A competition), hOx1R; conditions: CHO or HEK cell membranes, 1 h room temperature
T1 construct: expressed in transfected cells
T1 sequence (O43613 1-425): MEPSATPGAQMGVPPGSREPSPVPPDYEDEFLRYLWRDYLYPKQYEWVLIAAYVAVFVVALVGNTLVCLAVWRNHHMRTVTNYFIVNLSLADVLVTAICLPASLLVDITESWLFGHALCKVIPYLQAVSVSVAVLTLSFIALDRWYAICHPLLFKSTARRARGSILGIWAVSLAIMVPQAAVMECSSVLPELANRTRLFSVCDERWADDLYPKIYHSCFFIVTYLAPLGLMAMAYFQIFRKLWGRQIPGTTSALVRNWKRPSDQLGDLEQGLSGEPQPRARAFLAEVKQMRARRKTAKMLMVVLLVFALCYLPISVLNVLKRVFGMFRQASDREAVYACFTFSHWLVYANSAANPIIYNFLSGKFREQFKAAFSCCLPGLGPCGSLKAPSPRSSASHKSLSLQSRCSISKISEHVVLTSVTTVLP
Description: (§1) For crude cell membrane preparations, cells (CHO, Chinese hamster ovary or HEK, human embryonic kidney) expressing human orexin 1 or human orexin 2 receptors, were washed with HEPES (10 mM, pH 7.5), scraped off the culture plates with the same buffer, and centrifuged at 4° C. for 5 min at 2500×g. The cell pellet was either stored at −80° C. or used directly. Before the experiments, cell membranes were re-suspended in binding assay buffer (10 mM HEPES, 0.5% (w/v) bovine serum albumin, pH 7.5) by homogenisation with a Polytron homogeniser at 50 Hz for 20 s. Cell membranes were also used as made available by commercial providers.
(§2) In initial saturation experiments (to calculate Bmax), cell homogenates (150 μl) were incubated with 25-300 pM of the radioligand ([^125I]orexin A, 50 μl), 8 concentrations in triplicates in the presence or absence Orexin A (1 μM, 50 μl) to define non specific binding. Bound radioactivity was measured, and data were analysed with the program XLFIT or Graphpad Prism. Protein concentration was determined according to the Bradford/BioRad Protein Assay Kit.
(§3) In competition experiments, cell homogenates (150 μl) were incubated in assay buffer (10 mM HEPES, pH 7.5, 0.5% (w/v) bovine serum albumin, 5 mM MgCl2, […], and tween 0.05%) for 1 h at room temperature with about […] of the radioligand ([^125I]orexin A, 2100 Ci/mmole, 50 μl), and with various concentrations of compounds of the invention (50 μl) in triplicates; non-specific binding was determined in the presence of Orexin A (1 μM). Reactions were terminated by vacuum filtration, 3 washes of ice cold wash buffer (Tris-HCl pH 7.4/10 mM, with NaCl 154 mM). Competition data is expressed in Table 1 as Kd [μM].

[2] = target: T1, human orexin 1 receptor (hOx1R); assay: Calcium accumulation in cells (FLIPR), antagonism of orexin A, hOx1R; assay type: cell-based; conditions: for Kd: cells expressing human orexin 1 receptor, IC50 vs orexin A converted by Cheng and Prusoff correction; for inhibition at 10 µM: measured at a concentration of 10 μM of compound (cells marked ^a)
Description: (§4) Cells expressing human orexin 1 or human orexin 2 receptors, were seeded at 8,000 cells/well in 384 well black-walled clear bottom, poly-D-lysine coated plates. After 24 h, the medium was removed and cells were washed once with phosphate buffered saline and serum-deprived overnight in assay buffer (130 mM NaCl, 5.4 mM KCl, 1.8 mM CaCl2, 0.8 mM MgSO4, 0.9 mM NaH2PO4, 25 mM glucose, 20 mM HEPES, pH 7.4) containing bovine serum albumin (1% w/v).
(§5) On the day of the experiment, the cells seeded in black plates were treated with assay buffer containing the Ca^2+ sensitive fluorescent dye Fluo-4-AM (2 μM), and probenecid (0.1 mM). After 1 h plates were washed twice with, and resuspended in, assay buffer containing probenecid (0.1 mM) using a multi plate washer. The plates were placed into a FLIPR II (Fluorometric Imaging Plate Reader, Molecular Devices, Sunnyvale, Calif., USA) and baseline fluorescence (fluorescence light units, FLU) was measured (5 measurements, 2 S each; laser excitation 488 nm at 0.6-1 W, CCD camera exposure 0.4 s) before addition of buffer alone (basal) or containing test compounds (either compound of formula I alone, agonist alone or agonist in the presence of various concentrations of compounds of formula I). Fluorescence measurements were then continued every 1 S for 120 S followed by every 4 S for 240 S.
(§6) The measurements were typically made in two sequences:
(§7) Compounds of formula I were tested usually in a concentration range from 10^−9 M to 10^−5 M.
(§8) In the second round, performed one hour later (to allow for equilibration), Orexin A was tested either in the absence (calibration curves, Orexin A agonist controls) or in the presence of compounds of formula I to determine antagonism.

[3] = target: T2, human orexin 2 receptor (hOx2R) (Homo sapiens, UniProt O43614); assay: Radioligand binding assay ([125I]orexin A competition), hOx2R; conditions: CHO or HEK cell membranes, 1 h room temperature
T2 construct: expressed in transfected cells
T2 sequence (O43614 1-444): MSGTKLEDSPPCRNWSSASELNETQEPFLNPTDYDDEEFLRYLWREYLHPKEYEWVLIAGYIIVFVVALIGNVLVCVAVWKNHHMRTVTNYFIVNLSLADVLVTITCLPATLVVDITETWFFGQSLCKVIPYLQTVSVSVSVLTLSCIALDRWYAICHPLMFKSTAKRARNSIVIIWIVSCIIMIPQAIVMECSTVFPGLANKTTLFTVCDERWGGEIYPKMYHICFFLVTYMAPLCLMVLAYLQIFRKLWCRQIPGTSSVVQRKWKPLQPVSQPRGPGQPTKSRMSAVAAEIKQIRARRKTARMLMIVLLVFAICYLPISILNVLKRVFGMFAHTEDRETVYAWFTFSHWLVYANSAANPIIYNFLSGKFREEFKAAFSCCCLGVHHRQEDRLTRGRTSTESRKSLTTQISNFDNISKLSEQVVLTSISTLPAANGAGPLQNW
Description: as §1, §2, §3

[4] = target: T2, human orexin 2 receptor (hOx2R); assay: Calcium accumulation in cells (FLIPR), antagonism of orexin A, hOx2R; assay type: cell-based; conditions: cells expressing human orexin 2 receptor; IC50 vs orexin A converted by Cheng and Prusoff correction
Description: as §4, §5, §6, §7, §8

SMILES	Kd [1]	Kd [2]	Kd [3]	Kd [4]	inhibition at 10 µM [2]
Cc1nc2sccn2c1C(=O)NCC[C@H](Cc1ccccc1)N(C)C(=O)c1ccc2c(c1)OCO2 [Example 82, 6-Methyl-imidazo[2,1-b]thiazole-5-carboxylic acid {(S)-3-[(benzo[1,3]dioxole-5-carbonyl)-methyl-amino]-4-phenyl-butyl}-amide]	163 nM	963 nM	12 nM	2 nM	
CN(C(=O)c1cccc2ccccc12)[C@H](CCNC(=O)c1nc2ccccc2n1C)Cc1ccc(F)cc1 [Example 24, 1-Methyl-1H-benzoimidazole-2-carboxylic acid {(S)-4-(4-fluoro-phenyl)-3-[methyl-(naphthalene-1-carbonyl)-amino]-butyl}-amide]	1390 nM	124 nM	273 nM	5 nM	
CN(C(=O)c1ccc2[nH]ccc2c1)[C@H](CCNC(=O)c1nc2ccccc2n1C)Cc1ccccc1 [Example 81, 1-Methyl-1H-benzoimidazole-2-carboxylic acid {(S)-3-[(1H-indole-5-carbonyl)-methyl-amino]-4-phenyl-butyl}-amide]	6 nM	12 nM	23 nM	13 nM	
COc1cc(F)cc(C(=O)N(C)[C@H](CCNC(=O)c2cccn2C)Cc2ccccc2)c1 [Example 105, 1-Methyl-1H-pyrrole-2-carboxylic acid {(S)-3-[(3-fluoro-5-methoxy-benzoyl)-methyl-amino]-4-phenyl-butyl}-amide]	286 nM	811 nM	12 nM	7 nM	
CN(C(=O)c1ccc2cc[nH]c2c1)[C@H](CCNC(=O)c1ccccn1)Cc1ccccc1 [Example 64, 1H-Indole-6-carboxylic acid {(S)-1-benzyl-3-[(pyridine-2-carbonyl)-amino]-propyl}-methyl-amide]	540 nM	1010 nM	6860 nM	1070 nM	
CN(C(=O)c1ccc2c(ccn2C)c1)[C@H](CCNC(=O)c1ccccn1)Cc1ccccc1 [Example 84, 1-Methyl-1H-indole-5-carboxylic acid {(S)-1-benzyl-3-[(pyridine-2-carbonyl)-amino]-propyl}-methyl-amide]	30 nM	50 nM	1330 nM	809 nM	
CN(C(=O)c1cccc2ccccc12)[C@H](CCNC(=O)c1nc2ccccc2n1C)Cc1ccc(Cl)cc1 [Example 26, 1-Methyl-1H-benzoimidazole-2-carboxylic acid {(S)-4-(4-chloro-phenyl)-3-[methyl-(naphthalene-1-carbonyl)-amino]-butyl}-amide]	3280 nM	122 nM	308 nM	10 nM	
CN(C(=O)c1ccc2ccccc2c1)[C@H](CCNC(=O)c1nc2ccccc2n1C)Cc1ccccc1 [Example 44, 1-Methyl-1H-benzoimidazole-2-carboxylic acid {(S)-3-[methyl-(naphthalene-2-carbonyl)-amino]-4-phenyl-butyl}-amide]	82 nM	33 nM	781 nM	90 nM	
CN(C(=O)c1cccc2ccccc12)[C@H](CCNC(=O)c1ccccn1)Cc1ccc(F)cc1 [Example 28, Pyridine-2-carboxylic acid {(8)-4-(4-fluoro-phenyl)-3-[methyl-(naphthalene-1-carbonyl)-amino]-butyl}-amide]	579 nM	28 nM	371 nM	4 nM	
CN(C(=O)c1ccccc1)[C@H](CCNC(=O)c1cccc2c1OCC2)Cc1ccccc1 [Example 67, 2,3-Dihydro-benzofuran-7-carboxylic acid [(S)-3-(benzoyl-methyl-amino)-4-phenyl-butyl]-amide]	1080 nM		114 nM	180 nM	33%
CN(C(=O)c1ccccc1)[C@H](CCNC(=O)c1cccc2c1OCO2)Cc1ccccc1 [Example 32, Benzo[1,3]dioxole-4-carboxylic acid [(S)-3-(benzoyl-methyl-amino)-4-phenyl-butyl]-amide]	> 10000 nM		435 nM	67 nM	24%
CN(C(=O)c1cccc2ccccc12)[C@H](CCNC(=O)c1nc2ccccc2n1C)Cc1ccccc1 [Example 18, 1-Methyl-1H-benzoimidazole-2-carboxylic acid {(S)-3-[methyl-(naphthalene-1-carbonyl)-amino]-4-phenyl-butyl}-amide]	332 nM	100 nM	129 nM	14 nM	
CN(C(=O)c1ccc2[nH]ccc2c1)[C@H](CCNC(=O)c1ccccn1)Cc1ccccc1 [Example 7, 1H-Indole-5-carboxylic acid {(S)-1-benzyl-3-[(pyridine-2-carbonyl)-amino]-propyl}-methyl-amide]	7 nM	16 nM	41 nM	40 nM	
Cc1nc(C(=O)NCC[C@H](Cc2ccccc2)N(C)C(=O)c2ccccc2)c(-c2ccccc2F)s1 [Example 27, 5-(2-Fluoro-phenyl)-2-methyl-thiazole-4-carboxylic acid [(S)-3-(benzoyl-methyl-amino)-4-phenyl-butyl]-amide]	783 nM	76 nM	337 nM	11 nM	
CN1CCc2cc(C(=O)N(C)[C@H](CCNC(=O)c3ccccn3)Cc3ccccc3)ccc21 [Example 55, 1-Methyl-2,3-dihydro-1H-indole-5-carboxylic acid {(S)-1-benzyl-3-[(pyridine-2-carbonyl)-amino]-propyl}-methyl-amide]	75 nM	1640 nM	1760 nM	1290 nM	
CN(C(=O)c1cc(C(F)(F)F)cc(C(F)(F)F)c1)C(CCNC(=O)c1ccccc1)Cc1ccccc1 (stereo not shown) [Example 17, N-(3-Benzoylamino-1-benzyl-propyl)-N-methyl-3,5-bis-trifluoromethyl-benzamide]	8790 nM		107 nM	41 nM	36%
